Test: Lung distribution test
Format: in vivo
Settings: SD rats, 8 hours after oral administration (25 mg/kg); for concentration at 8 h: rat, read-out: Prodrug form concentration (lung)
Procedure: Test Example 5: Lung Distribution Test
Materials and methods for experiments • (1) Animals used: SD rats are used. • (2) Rearing conditions: the SD rats are allowed to freely take solid feed and sterilized tap water. • (3) Dose and grouping setting: a given dose is orally administered. Grouping is set as below.
Oral administration: 1 to 100 mg/kg (n=2 to 3) • (4) The test sample is orally administered in a form of solution or suspension. • (5) Administration method: the test sample is forcedly administered into the stomach through an oral probe for the oral administration. • (6) Evaluation items: Blood and lung are collected, and the concentrations of the compound of the present invention in plasma and lung are measured using LC/MS/MS.
Lung concentrations of Compound I-057 as an active form and Compound I-077 as a prodrug form thereof 8 hours after they were orally administered (25 mg/kg) are shown below.
In addition, lung concentrations of other prodrug forms 8 hours after they were orally administered (25 mg/kg) are shown below.

SMILES	concentration at 8 h [ng/g]	Active form concentration (lung) [ng/g]
CC(C)(C(=O)OC[C@H]1N[C@@H](c2cc(C(N)=O)c3c(N)ncnn23)[C@H](O)[C@@H]1O)c1ccccc1 [Compound I-072]	6.41	
CCC(C)(C)C(=O)OC[C@H]1N[C@@H](c2cc(C(N)=O)c3c(N)ncnn23)[C@H](O)[C@@H]1O [Compound I-063]	3.85	
CC(C)(C)CC(=O)OC[C@H]1N[C@@H](c2cc(C(N)=O)c3c(N)ncnn23)[C@H](O)[C@@H]1O [Compound I-058]	12.7	
CCC(CC)C(=O)OC[C@H]1N[C@@H](c2cc(C(N)=O)c3c(N)ncnn23)[C@H](O)[C@@H]1O [Compound I-054]		6480
